Results taken from PubChem BioAssay (NCI).
Where “and” joins values, the source holds several entries; their conditions need not be identical. Equal entries are not always repeated.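 Each compound was tested at five concentrations against cells in 96-well plates for 48 hours. The concentration for 50% growth inhibition is given as GI50. TGI marks complete inhibition of growth.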

How the values were obtained:
Experiment in all cases: DTP human tumour cell line panel, 48 h
HCC-2998 colon = system: HCC-2998 colon
HOP-92 NSCLC = system: HOP-92 NSCLC
SF-268 CNS = system: SF-268 CNS
K-562 leukemia = system: K-562 leukemia
NCI/ADR-RES ovarian = system: NCI/ADR-RES ovarian
KM12 colon = system: KM12 colon
SF-539 CNS = system: SF-539 CNS
ACHN renal = system: ACHN renal
NCI-H23 lung = system: NCI-H23 lung
UO-31 renal = system: UO-31 renal

| Compound | GI50 (HCC-2998 colon) | TGI (HCC-2998 colon) | GI50 (HOP-92 NSCLC) | TGI (HOP-92 NSCLC) | GI50 (SF-268 CNS) | TGI (SF-268 CNS) | GI50 (K-562 leukemia) | TGI (K-562 leukemia) | GI50 (NCI/ADR-RES ovarian) | TGI (NCI/ADR-RES ovarian) | GI50 (KM12 colon) | TGI (KM12 colon) | GI50 (SF-539 CNS) | TGI (SF-539 CNS) | GI50 (ACHN renal) | TGI (ACHN renal) | GI50 (NCI-H23 lung) | TGI (NCI-H23 lung) | GI50 (UO-31 renal) | TGI (UO-31 renal) |
| --- | --- | --- | --- | --- | --- | --- | --- | --- | --- | --- | --- | --- | --- | --- | --- | --- | --- | --- | --- | --- |
| N=C1C(c2nc3ccccc3s2)=C(O)CN1c1ccc(Cl)cc1Cl | 10.4 µM | 31.1 µM | 15.8 µM | 38.1 µM | 89 µM | > 100 µM | 10.7 µM | 64.5 µM | 13.5 µM | 37.4 µM | 11.7 µM | 65.7 µM | 7.62 µM | 26.7 µM | 13 µM | 28.8 µM | 2.59 µM | 6.6 µM | 1.63 µM | 3.62 µM |
| NCC1OC(n2cnc3c(=O)[nH]c(N)nc32)C(O)C1O (stereo unspecified) |  |  |  | > 100 µM |  | > 100 µM |  | > 100 µM |  | > 100 µM |  | > 100 µM |  | > 100 µM |  | > 100 µM |  | > 100 µM |  | > 100 µM |
| ClC1(c2ccccc2)c2ccc(Br)cc2-c2cc(Br)ccc21 |  | 36.2 µM |  | 29.2 µM |  | 39.7 µM |  | > 100 µM |  | 34.3 µM |  | 38.5 µM |  | 33.3 µM |  | 29.6 µM |  | 29.3 µM |  | 29.6 µM |
| N#Cc1ccc(-c2nc3ccc(Cl)cc3[nH]2)cc1 |  | > 100 µM |  | > 100 µM |  |  |  | > 100 µM |  | > 100 µM |  | > 100 µM |  | > 100 µM |  |  |  |  |  | > 100 µM |
| CCOC(=O)C#Cc1ccc([N+](=O)[O-])cc1 |  | 28.7 µM |  | 3.47 µM |  | 8.62 µM |  | 11.9 µM |  | 79.5 µM |  | 3.81 µM |  | 6.69 µM |  | 10.2 µM |  | 7.55 µM |  | 3.15 µM |
| COc1cc2c(Nc3ccc(Br)cc3F)ncnc2cc1OCC1CCN(C)CC1 | 7.38 µM and > 10 µM | 21.6 µM and > 10 µM | 0.527 µM and 0.454 µM | 4.07 µM and 6.91 µM | 3.24 µM and 6.18 µM | 15 µM and > 10 µM | 0.436 µM and 0.651 µM | 11.8 µM and > 10 µM | 5.58 µM and > 10 µM | 19.1 µM and > 10 µM | 8.94 µM and > 10 µM | 21.4 µM and > 10 µM | 2.93 µM and 7.94 µM | 9.49 µM and > 10 µM | 0.471 µM and 0.556 µM | 11.4 µM and > 10 µM | 9.57 µM and > 10 µM | 21.9 µM and > 10 µM | 0.573 µM and 0.479 µM | 2.5 µM and 5.78 µM |
| Cc1cc(O)c(/C=N/c2nc(-c3cccc([N+](=O)[O-])c3)cs2)c(=O)o1 |  | > 100 µM |  | > 100 µM |  |  |  |  |  | > 100 µM |  | > 100 µM |  | > 100 µM |  | > 100 µM |  | > 100 µM |  | > 100 µM |
| COC1CC2C=CC3C4OC2(/C(C)=C/C(C)C(C(C)O)OC1=O)C3C(O)C(C)C4OC(=O)c1ccc[nH]1 (stereo unspecified) |  | > 100 µM |  | > 100 µM |  | > 100 µM |  |  |  | > 100 µM |  | > 100 µM |  | > 100 µM |  | > 100 µM |  | > 100 µM |  | > 100 µM |
| O=C1/C(=C/c2ccccc2Br)COc2ccc(O)c(O)c21 | 1.83 µM | 3.4 µM | 2.71 µM | 9 µM | 1.6 µM | 4.23 µM | 0.339 µM | > 100 µM | 1.88 µM | 11.6 µM | 1.61 µM | 4.78 µM |  |  | 1.32 µM | 3.09 µM | 1.83 µM | 4.17 µM | 0.804 µM | 2.07 µM |
| O=C1CC2C(=O)C1C(C(=O)O)C2C(=O)O (stereo unspecified) |  |  |  | > 100 µM |  | > 100 µM |  | > 100 µM |  | > 100 µM |  | > 100 µM |  | > 100 µM |  | > 100 µM |  | > 100 µM |  | > 100 µM |
| NCCCn1c2c(c3cc4c(cc3c1=O)OCO4)C(=O)c1ccccc1-2 | 0.237 µM | 0.718 µM | 0.437 µM | 2.11 µM | 3.75 µM | 16.5 µM | 0.181 µM | 0.602 µM | 0.7 µM | 2.11 µM | 0.757 µM | 2.13 µM |  |  | 0.119 µM | 1.22 µM | 0.564 µM | 2.09 µM |  |  |
| CCCCNC(=O)Oc1ccc2c(=O)c3sc4c(=O)c5ccccc5c(=O)c4c3c(=O)c2c1 | 0.511 µM | 2.01 µM |  |  | 1.1 µM | 3.56 µM | 0.937 µM | 11.5 µM | 1.58 µM | 8.43 µM | 2 µM | 9.21 µM | 0.235 µM | 0.767 µM | 0.874 µM | 2.18 µM | 0.188 µM | 0.583 µM | 0.699 µM | 2.66 µM |
| O=C1/C=C/[C@@H](O)[C@@H]2C[C@@H](O)C[C@H]2/C=C/CCC[C@H](CO)O1 | 2.61 µM | > 100 µM | 2.76 µM | > 100 µM | 1.33 µM | > 100 µM |  |  | 3.17 µM | > 100 µM | 2.42 µM | > 100 µM | 3.7 µM | > 100 µM | 3.97 µM | > 100 µM | 2.25 µM | > 100 µM | 2.98 µM | > 100 µM |
| COc1cccc(-c2nc(-c3ccc(NC(=O)c4ccccc4)cc3)[nH]c2-c2ccnc(Br)c2)c1 |  |  | 6.26 µM | > 100 µM | 6.13 µM | > 100 µM | 1.67 µM | > 100 µM | 3.55 µM | > 100 µM | 2.29 µM | > 100 µM | 1.59 µM | 12.6 µM | 2.95 µM | > 100 µM | 2.82 µM | > 100 µM | 2.93 µM | > 100 µM |
| O=C(CN1CCOCC1)CC(O)(C(F)(F)F)C(F)(F)F |  | > 100 µM |  | 97.2 µM |  |  |  | > 100 µM |  | > 100 µM |  | > 100 µM |  | > 100 µM |  | > 100 µM |  | > 100 µM |  | > 100 µM |
| CC(=O)NNC(=S)/N=C/c1c(O)cc(C)oc1=O |  | > 100 µM |  | > 100 µM |  |  |  |  |  | > 100 µM |  | > 100 µM |  | > 100 µM |  | > 100 µM |  | > 100 µM |  | > 100 µM |
| Cc1ccc(C(=O)CCC2C(=O)CC(C)(C)CC2=O)cc1 |  | > 100 µM |  | > 100 µM |  | > 100 µM |  |  |  | > 100 µM |  | > 100 µM |  | > 100 µM |  | > 100 µM |  | > 100 µM |  | > 100 µM |
